Results published in the NIST ThermoML archive (doi:10.1021/je501041r).
Numbers after ± are expanded uncertainties.

Assay: xn = mol fraction of the nth substance listed
Conditions: 101 kPa, Liquid; for viscosity: Capillary tube (Ostwald / Ubbelohde) method; for mass density: Vibrating tube method

CCCCCCO [hexan-1-ol] + CC(C)CC(C)(C)C
Conditions | mass density [kg/m3] | viscosity [mPa·s]
298.15 K, x2 = 0 | 815.3 ± 2 | 4.605 ± 0.056
298.15 K, x2 = 0.1001 | 799.99 ± 2 | 3.428 ± 0.042
298.15 K, x2 = 0.2 | 785 ± 2 | 2.565 ± 0.031
298.15 K, x2 = 0.3001 | 770.65 ± 2 | 1.933 ± 0.023
298.15 K, x2 = 0.4 | 756.92 ± 2 | 1.452 ± 0.017
298.15 K, x2 = 0.5 | 743.89 ± 2 | 1.124 ± 0.013
298.15 K, x2 = 0.6001 | 731.33 ± 2 | 0.899 ± 0.011
298.15 K, x2 = 0.7001 | 719.63 ± 2 | 0.737 ± 0.009
298.15 K, x2 = 0.7997 | 708.41 ± 2 | 0.621 ± 0.007
298.15 K, x2 = 0.8998 | 697.73 ± 2 | 0.536 ± 0.006
298.15 K, x2 = 0.9199 | 695.61 ± 2 | –
298.15 K, x2 = 0.9396 | 693.66 ± 2 | –
298.15 K, x2 = 0.9595 | 691.69 ± 2 | –
303.15 K, x2 = 0 | 811.71 ± 2 | 3.944 ± 0.048
303.15 K, x2 = 0.1001 | 796.32 ± 2 | 2.958 ± 0.036
303.15 K, x2 = 0.2 | 781.24 ± 2 | 2.236 ± 0.027
303.15 K, x2 = 0.3001 | 766.82 ± 2 | 1.728 ± 0.021
303.15 K, x2 = 0.4 | 753.03 ± 2 | 1.306 ± 0.016
303.15 K, x2 = 0.5 | 739.93 ± 2 | 1.051 ± 0.013
303.15 K, x2 = 0.6001 | 727.33 ± 2 | 0.829 ± 0.01
303.15 K, x2 = 0.7001 | 715.58 ± 2 | 0.688 ± 0.008
303.15 K, x2 = 0.7997 | 704.3 ± 2 | 0.582 ± 0.007
303.15 K, x2 = 0.8998 | 693.58 ± 2 | 0.504 ± 0.006
303.15 K, x2 = 0.9199 | 691.45 ± 2 | –
303.15 K, x2 = 0.9396 | 689.52 ± 2 | –
303.15 K, x2 = 0.9595 | 687.54 ± 2 | –
308.15 K, x2 = 0 | 808.09 ± 2 | 3.414 ± 0.042
308.15 K, x2 = 0.1001 | 792.61 ± 2 | 2.592 ± 0.032
308.15 K, x2 = 0.2 | 777.46 ± 2 | 1.965 ± 0.024
308.15 K, x2 = 0.3001 | 762.96 ± 2 | 1.536 ± 0.018
308.15 K, x2 = 0.4 | 749.11 ± 2 | 1.18 ± 0.014
308.15 K, x2 = 0.5 | 735.95 ± 2 | 0.941 ± 0.011
308.15 K, x2 = 0.6001 | 723.29 ± 2 | 0.775 ± 0.009
308.15 K, x2 = 0.7001 | 711.48 ± 2 | 0.643 ± 0.008
308.15 K, x2 = 0.7997 | 700.16 ± 2 | 0.546 ± 0.007
308.15 K, x2 = 0.8998 | 689.39 ± 2 | 0.476 ± 0.006
308.15 K, x2 = 0.9199 | 687.26 ± 2 | –
308.15 K, x2 = 0.9396 | 685.32 ± 2 | –
308.15 K, x2 = 0.9595 | 683.35 ± 2 | –
313.15 K, x2 = 0 | 804.43 ± 2 | 2.96 ± 0.036
313.15 K, x2 = 0.1001 | 788.88 ± 2 | 2.275 ± 0.028
313.15 K, x2 = 0.2 | 773.65 ± 2 | 1.745 ± 0.021
313.15 K, x2 = 0.3001 | 759.07 ± 2 | 1.361 ± 0.016
313.15 K, x2 = 0.4 | 745.15 ± 2 | 1.071 ± 0.013
313.15 K, x2 = 0.5 | 731.93 ± 2 | 0.861 ± 0.01
313.15 K, x2 = 0.6001 | 719.21 ± 2 | 0.721 ± 0.009
313.15 K, x2 = 0.7001 | 707.36 ± 2 | 0.596 ± 0.007
313.15 K, x2 = 0.7997 | 695.98 ± 2 | 0.512 ± 0.006
313.15 K, x2 = 0.8998 | 685.18 ± 2 | 0.449 ± 0.005
313.15 K, x2 = 0.9199 | 683.03 ± 2 | –
313.15 K, x2 = 0.9396 | 681.09 ± 2 | –
313.15 K, x2 = 0.9595 | 679.12 ± 2 | –
318.15 K, x2 = 0 | 800.75 ± 2 | 2.581 ± 0.032
318.15 K, x2 = 0.1001 | 785.1 ± 2 | 1.997 ± 0.024
318.15 K, x2 = 0.2 | 769.8 ± 2 | 1.577 ± 0.019
318.15 K, x2 = 0.3001 | 755.15 ± 2 | 1.23 ± 0.015
318.15 K, x2 = 0.4 | 741.15 ± 2 | 0.976 ± 0.012
318.15 K, x2 = 0.5 | 727.88 ± 2 | 0.807 ± 0.01
318.15 K, x2 = 0.6001 | 715.1 ± 2 | 0.658 ± 0.008
318.15 K, x2 = 0.7001 | 703.19 ± 2 | 0.559 ± 0.007
318.15 K, x2 = 0.7997 | 691.77 ± 2 | 0.483 ± 0.006
318.15 K, x2 = 0.8998 | 680.92 ± 2 | 0.424 ± 0.005
318.15 K, x2 = 0.9199 | 678.78 ± 2 | –
318.15 K, x2 = 0.9396 | 676.83 ± 2 | –
318.15 K, x2 = 0.9595 | 674.86 ± 2 | –
323.15 K, x2 = 0 | 797.02 ± 2 | 2.251 ± 0.028
323.15 K, x2 = 0.1001 | 781.29 ± 2 | 1.778 ± 0.022
323.15 K, x2 = 0.2 | 765.91 ± 2 | 1.391 ± 0.017
323.15 K, x2 = 0.3001 | 751.18 ± 2 | 1.113 ± 0.013
323.15 K, x2 = 0.4 | 737.12 ± 2 | 0.894 ± 0.011
323.15 K, x2 = 0.5 | 723.78 ± 2 | 0.747 ± 0.009
323.15 K, x2 = 0.6001 | 710.95 ± 2 | 0.623 ± 0.007
323.15 K, x2 = 0.7001 | 698.99 ± 2 | 0.523 ± 0.006
323.15 K, x2 = 0.7997 | 687.52 ± 2 | 0.455 ± 0.006
323.15 K, x2 = 0.8998 | 676.63 ± 2 | 0.402 ± 0.005
323.15 K, x2 = 0.9199 | 674.48 ± 2 | –
323.15 K, x2 = 0.9396 | 672.54 ± 2 | –
323.15 K, x2 = 0.9595 | 670.56 ± 2 | –
